Assay results: the RepoRT retention time repository

Assay: Waters ACQUITY UPLC BEH C18, 100 × 2.1 mm, 1.7 µm, 40 °C, 0.3 to 0.4 mL/min, estimated dead time 0.63 min; A: water + 0.1% formic acid; B: methanol + 0.1% formic acid; gradient (min/%B) 0/0.5 0.1/0.5 10/80 10.1/99.5 12/99.5
Conditions: stereoisomer not certain

| Compound | LC retention time [min] |
| --- | --- |
| O=C1C(O)Oc2ccccc2N1O (stereo not given) | 1.83 |
| CCC(C)C(N)C(=O)NC(CO)C(=O)O (stereo not given) | 1.8 |
| NC(Cc1ccccc1)C(=O)O (stereo not given) | 2.3 |
| CC1C(=O)OC2C(O)C34C5OC(=O)C3(OC3OC(=O)C(O)C34C(C(C)(C)C)C5O)C12O (stereo not given) | 4.33 |
| CNC(=O)Oc1ccc2c(c1)C1(C)CCN(C)C1N2C (stereo not given) | 3.31 |
| C=CC(O)CC(=NOS(=O)(=O)O)SC1OC(CO)C(O)C(O)C1O (stereo not given) | 1.77 |
| O=c1c(-c2ccc(O)c(O)c2)coc2cc(O)ccc12 | 4.63 |
| COc1cc(-c2[o+]c3cc(O)cc(OC4OC(CO)C(O)C(O)C4O)c3cc2OC2OC(CO)C(O)C(O)C2O)ccc1O (stereo not given) | 2.79 |
| CCCCCCCCC=CCCCCCCCC(=O)OCC(O)COP(=O)(O)OCCN (stereo not given) | 10.2 |
| O=c1cc(-c2ccc(O)cc2)oc2c(C3OC(CO)C(O)C3O)c(O)c(C3OC(CO)C(O)C(O)C3O)c(O)c12 (stereo not given) | 3.55 |
| COC(=O)C1=COC(OC2OC(CO)C(O)C(O)C2O)C2C(CO)=CCC12 (stereo not given) | 3.42 |
| CCOC1OC2c3cc4c(cc3CCN(C)C2c2ccc3c(c21)OCO3)OCO4 (stereo not given) | 5.15 |
| O=c1cc(-c2ccc(O)c(O)c2)oc2c(C3OC(CO)C(O)C(O)C3O)c(O)cc(O)c12 (stereo not given) | 3.7 |
| CCC1CC2CN3CCC4(O)C(=Nc5ccc(OC)cc54)C(C(=O)OC)(C2)C13 (stereo not given) | 4.01 |
| Oc1ccc(C=Cc2cc(O)cc3c2C(c2cc(O)cc(O)c2)C(c2ccc(O)cc2)O3)cc1 (stereo not given) | 5.81 |
| COc1cc(-c2cc(=O)c3c(O)cc(OC4OC(C(=O)O)C(O)C(O)C4OC4OC(COC(=O)C=Cc5ccc(O)cc5)C(O)C(O)C4O)cc3o2)cc(OC)c1O (stereo not given) | 4.9 |
| O=c1cc(-c2ccccc2)oc2ccccc12 | 7.75 |
| CC1OC(OC2C(O)C(CO)OC(Oc3c(-c4ccc(O)cc4)oc4cc(O)cc(O)c4c3=O)C2O)C(O)C(O)C1O (stereo not given) | 4.15 |
| CC(C)C(O)(C(=O)OCC1=CCN2CCC(O)C12)C(C)O (stereo not given) | 2.75 |
| CC1OC(OCC2OC(Oc3c(-c4ccc(O)cc4)oc4cc(O)cc(O)c4c3=O)C(O)C(O)C2O)C(O)C(O)C1O (stereo not given) | 4 |
| CC1OC(OC2C(OC3C(OC4CCC5(C)C(CCC6(C)C5CC=C5C7CC(C)(C)CC(O)C7(C)CCC56C)C4(C)CO)OC(C(=O)O)C(O)C3O)OCC(O)C2O)C(O)C(O)C1O (stereo not given) | 7.28 |
| CC(O)(CC(=O)O)CC(=O)OCC1OC(Oc2c(-c3ccc(O)cc3)oc3cc(O)cc(O)c3c2=O)C(O)C(O)C1O (stereo not given) | 4.5 |
| CC(C)=CCCC(C)(O)C1CCC2(C)C1C(O)CC1C3(C)CCC(O)C(C)(C)C3C(OC3OC(CO)C(O)C(O)C3OC3OC(C)C(O)C(O)C3O)CC12C (stereo not given) | 6.25 |
| CCCCCCCCCCCCOS(=O)(=O)O | 8.65 |
| CC(CN)CCC1(O)OC2CC3C4CCC5CC(OC6OC(CO)C(OC7OC(CO)C(O)C(OC8OCC(O)C(O)C8O)C7OC7OC(CO)C(O)C(O)C7O)C(O)C6O)CCC5(C)C4CCC3(C)C2C1C (stereo not given) | 4.31 |
| COc1cc(C=CNC(=O)C=Cc2ccc(O)c(OC)c2)ccc1O | 4.38 |
| CC=C1CN2C3CC1C1COC(c4c3[nH]c3cc(OC)ccc43)C12 (stereo not given) | 4.42 |

| Compound | LC retention time [min] |
| --- | --- |
| COc1cc(C=O)ccc1OC(C)=O | 5.59 |
| CS(=O)CCCCCCC#N (stereo not given) | 3.43 |
| CC1CCC2C(C)C3C(CC4C5CC=C6CC(O)CCC6(C)C5CC(O)C43CO)N2C1 (stereo not given) | 3.7 |
| O=C(O)C1OC(OC2C(Oc3cc(O)c4c(=O)cc(-c5ccc(O)cc5)oc4c3)OC(C(=O)O)C(O)C2O)C(O)C(O)C1O (stereo not given) | 4.05 |
| O=C(O)CCSCCC(=O)O | 2.06 |
| CC1OC(OC2C(OC3C(OC4CCC5(C)C(CCC6(C)C5CC=C5C7CC(C)(C)CC(O)C7(C)CCC56C)C4(C)CO)OC(C(=O)O)C(O)C3O)OC(CO)C(O)C2O)C(O)C(O)C1O (stereo not given) | 7.09 |
| C=CC12CN(C)C3C4COC(CC41)C1(C(=O)Nc4ccccc41)C32 (stereo not given) | 3.21 |
| COc1ccc(-c2oc3cc(O)cc(O)c3c(=O)c2O)cc1 | 5.99 |
| CC(CCC1(O)OC2CC3C4CC=C5CC(OC6OC(COC7OC(C)C(O)C(O)C7OC7OC(C)C(O)C(O)C7OC7OC(C)C(O)C(O)C7O)C(O)C(O)C6O)CCC5(C)C4CCC3(C)C2C1C)COC1OC(CO)C(O)C(O)C1O (stereo not given) | 5.1 |
| C=C(C)C1CNC(C(=O)O)C1CC(=O)O (stereo not given) | 2.44 |
| C=CCS(=O)CC(NCC1(O)OCC(O)C(O)C1O)C(=O)O (stereo not given) | 1.66 |
| COc1cc(-c2oc3cc(O)cc(O)c3c(=O)c2OC2OC(CO)C(O)C(O)C2OC2OC(C)C(O)C(O)C2O)ccc1O (stereo not given) | 3.72 |
| OCC=Cc1ccc(O)c(O)c1 | 3.18 |
| CC(C)=CCCC(C)(OC1OC(CO)C(O)C(O)C1O)C1CCC2(C)C1C(O)CC1C3(C)CCC(O)C(C)(C)C3CCC12C (stereo not given) | 9.51 |
| COC(=O)C12CC3CC(C(C)O)C1N(CCc1c2[nH]c2ccc(OC)cc12)C3 (stereo not given) | 4.61 |
| O=C1CC(c2ccc(OC3OC(CO)C(O)C(O)C3O)cc2)Oc2cc(O)ccc21 (stereo not given) | 4.08 |
| CC1(C)CC(O)C2(C)CCC3(C)C(=CCC4C5(C)CCC(OC6OC(C(=O)O)C(O)C(O)C6OC6OCC(O)C(O)C6O)C(C)(CO)C5CCC43C)C2C1 (stereo not given) | 7.44 |
| CC(C)=CCCC(C)(O)C1CCC2(C)C1C(O)CC1C3(C)CCC(OC4OC(CO)C(O)C(O)C4O)C(C)(C)C3CCC12C (stereo not given) | 9.84 |
| O=c1c(OC2OC(CO)C(O)C(O)C2O)c(-c2ccc(O)c(O)c2)oc2cc(O)cc(O)c12 (stereo not given) | 4.03 |
| CC(C)=CCc1cc(C2CC(=O)c3c(O)cc(O)cc3O2)ccc1O (stereo not given) | 8.11 |
| CC1OC(Oc2c(-c3ccc(O)c(O)c3)oc3cc(O)cc(O)c3c2=O)C(OC2OC(CO)C(O)C(O)C2O)C(O)C1O (stereo not given) | 4.15 |
| Cc1ccc2ccc3ccc(C)nc3c2n1 | 3.47 |
| COc1cc(-c2cc(=O)c3c(O)cc(OC4OC(C(=O)O)C(O)C(O)C4O)cc3o2)cc(OC)c1OC1OC(CO)C(O)C(O)C1O (stereo not given) | 4.05 |
| O=C(O)C1OC(Oc2c(-c3ccc(O)c(O)c3)oc3cc(O)cc(O)c3c2=O)C(O)C(O)C1O (stereo not given) | 4.01 |
| COc1cc(-c2[o+]c3cc(O)cc(OC4OC(CO)C(O)C(O)C4O)c3cc2OC2OC(CO)C(O)C(O)C2O)cc(OC)c1O (stereo not given) | 2.81 |
| CC1(C)CC2C3=CCC4C5(C)CCC(OC6OC(C(=O)O)C(O)C(O)C6OC6OC(CO)C(O)C(O)C6OC6OC(CO)C(O)C(O)C6O)C(C)(CO)C5CCC4(C)C3(C)CCC2(C)C(O)C1O (stereo not given) | 5.81 |
| O=c1cc(-c2ccc(O)c(O)c2)oc2cc(O)c(C3OC(CO)C(O)C(O)C3O)c(O)c12 (stereo not given) | 3.59 |

| Compound | LC retention time [min] |
| --- | --- |
| CCC(C)C(N)C(=O)O (stereo not given) | 1.94 |
| CC(=O)OC1C(C(=O)O)OC(OC2C(O)C(O)OC(CO)C2O)C(O)C1OC1OC(CO)C(O)C(O)C1O (stereo not given) | 5.48 |
| O=C(C=Cc1ccc(O)cc1)NCCc1ccc(O)cc1 | 5.06 |
| CCC1C2CC3C4N(C)c5ccccc5C45CC(C2C5O)N3C1O (stereo not given) | 4.13 |
| COc1cc(-c2cc(=O)c3c(O)cc(OC4OC(C(=O)O)C(O)C(O)C4OC4OC(C(=O)O)C(O)C(O)C4O)cc3o2)ccc1O (stereo not given) | 4.05 |
| CC(C)C(N)C(=O)NC(Cc1ccccc1)C(=O)O (stereo not given) | 3.23 |
| COc1ccc2ccc(=O)oc2c1CC=C(C)C | 8.75 |
| CCCCCC=CC=CC(=O)CCCCCCCC(=O)O | 10.2 |
| O=c1oc2cc(O)ccc2c2oc3cc(O)ccc3c12 | 5.97 |
| CC(C)CC(NC(=O)CN)C(=O)O (stereo not given) | 2.5 |
| O=C(C=Cc1ccc(O)cc1)OCC1OC(OC2C(c3c(O)cc4oc(-c5ccc(O)cc5)cc(=O)c4c3O)OC(CO)C(O)C2O)C(O)C(O)C1O (stereo not given) | 4.21 |
| CC1=C(O)C(=O)CC(OC2CC(C)(C)CC3C4=CCC5C6(C)CCC(OC7OC(C(=O)O)C(O)C(O)C7OC7OC(CO)C(O)C(O)C7OC7OC(C)C(O)C(O)C7O)C(C)(CO)C6CCC5(C)C4(C)CCC23C)O1 (stereo not given) | 7.68 |
| CCCCCCCCC=CCCCCCCCC(=O)OCC(O)COP(=O)([O-])OCC[N+](C)(C)C (stereo not given) | 10.1 |
| CC1=C(O)C(=O)CC(OC2CC(C)(C)CC3C4=CCC5C6(C)CCC(OC7OC(C(=O)O)C(O)C(O)C7OC7OC(C(=O)O)C(O)C(O)C7OC7OC(C)C(O)C(O)C7O)C(C)(CO)C6CCC5(C)C4(C)CCC23C)O1 (stereo not given) | 7.66 |
| O=C1C(=Cc2ccc(O)c(O)c2)Oc2c1ccc(OC1OC(CO)C(O)C(O)C1O)c2O (stereo not given) | 4 |
| O=c1ccn(C2OC(CO)C(O)C2O)c(=O)[nH]1 (stereo not given) | 1.8 |
| O=C(O)CC1CCC(=O)C1CC=CCCO (stereo not given) | 3.39 |
| NCCCCNC(=O)C=Cc1ccc(O)c(O)c1 | 2.22 |
| CC(C)=CCCC(C)(OC1OC(COC2OCC(O)C(O)C2O)C(O)C(O)C1O)C1CCC2(C)C1C(O)CC1C3(C)CCC(O)C(C)(C)C3C(O)CC12C (stereo not given) | 6.11 |
| CCC(C)C(NCC1(O)OC(CO)C(O)C1O)C(=O)O (stereo not given) | 1.98 |
| COC(=O)C1C(O)CCC2CN3CCc4c([nH]c5ccccc45)C3CC21 (stereo not given) | 4.35 |
| O=c1c(O)c(-c2ccc(O)c(O)c2)oc2cc(O)cc(O)c12 | 5.37 |
| CC(C)=CCc1c(O)cc(O)c2c1OCC(c1ccc(O)cc1O)C2=O (stereo not given) | 7.04 |
| CC(C)=CCCC(C)(OC1OC(CO)C(O)C(O)C1O)C1CCC2(C)C1C(O)CC1C3(C)CCC(O)C(C)(C)C3C(OC3OC(CO)C(O)C(O)C3O)CC12C (stereo not given) | 4.8 |
| O=C1CC(c2ccc(O)c(O)c2)Oc2c1ccc(OC1OC(CO)C(O)C(O)C1O)c2O (stereo not given) | 3.47 |
| CC(C)=CCCC(C)(O)C1CCC2(C)C1C(O)CC1C3(C)CCC(O)C(C)(C)C3C(OC3OC(CO)C(O)C(O)C3O)CC12C (stereo not given) | 6.29 |
